Publication PMC8840081, “Phenylalanine-Based AMPA Receptor Antagonist as the Anticonvulsant Agent with Neuroprotective Activity—In Vitro and In Vivo Studies” (Molecules, 2022)

Experiments:
[1] = system: IMR-32 neuroblastoma cells; test: cell viability, MTS assay; assay type: cell-based, human; conditions: IMR-32, 24 h incubation, 1–100 µM
Procedure: (§1) All cell culture protocols and assay conditions were applied as we reported previously. SH-SY5Y (ATCC® CRL-2266™) cell line was purchased from ATCC (Manassas, VA, USA). IMR-32 (ATCC® CCL-127™) cell line was kindly provided by the Department of Oncogenomics, Academisch Medisch Centrum, Amsterdam, Holland. Before each test SH-SY5Y or IMR-32 cells were seeded in 96-well plates with transparent bottom at a concentration of 2.5 × 10^4 cells/well in 100 μL of respective cell culture medium and cultured for 24 h to reach 70% confluence. • Cell Viability
(§2) The CellTiter 96® AQueous Non-Radioactive Cell Proliferation Assay was purchased from Promega (Madison, WI, USA). After 24 h of cells incubation with compound 1 or 8 in the concentrations range 1–100 µM the MTS-based labeling mixture was added to each well and cells were incubated under the same conditions for 2–3 h. The absorbance was measured using a microplate reader EnSpire (PerkinElmer, Waltham, MA, USA) at 490 nm. All measurements were performed in triplicate and results are shown as mean ± SD. • Lactate Dehydrogenase Test

[2] = system: SH-SY5Y neuroblastoma cells; test: cell viability, MTS assay; assay type: cell-based, human; conditions: 24 h incubation, 1–100 µM
Procedure: as §1, §2

[3] = system: PTZ-induced clonic seizures in mice; test: PTZ seizure test; assay type: in vivo; conditions: PTZ 100 mg/kg s.c.; compound 100 mg/kg i.p.
Procedure: Behavioral experiments were carried out in male Albino Swiss (CD-1) mice weighing 18–22 g. The mice were kept in cages, in groups of 10 animals. They had free access to food and water before experiments, and were maintained at room temperature 22–24 °C, under 12:12 (light/dark) cycle. For the assays the animals were selected randomly. After the experiments the animals were euthanized by cervical dislocation. Experimental procedures for in vivo tests were approved by the Local Ethics Committee of the Jagiellonian University in Krakow (Approval No. 33/2018; release date: 1.02.2018) and the treatment of animals was performed in full accordance with ethical standards laid down in respective Polish and EU regulations (Directive 2010/63/EU).
Oxaliplatin was purchased from Activate Scientific GmbH (Prien, Germany). PTZ and STZ were provided by Merck KGaA (Darmstadt, Germany). For the in vivo tests, the compound 1 was suspended in 1% Tween 80 solution (Polskie Odczynniki Chemiczne, Gliwice, Poland), then being administered intraperitoneally 1 h before tests. […]
This test was carried out according to the method recently described. […] In this assay the latency to the occurrence of the first clonic seizure episode was measured and compared in drug-treated and control mice. […] The number of seizure episodes was also recorded in each group. • 6-Hz Test

[4] = system: IMR-32 neuroblastoma cells; test: neuroprotection against 6-OHDA-induced LDH release; assay type: cell-based, human; conditions: IMR-32, compound 50 µM, 1 h pretreatment, 200 µM 6-OHDA, 24 h
Procedure: as §1
(§3) CytoTox-ONE™ Homogeneous Membrane Integrity Assay, which based on the LDH release, was purchased from Promega (Madison, WI, USA). SH-SY5Y or IMR-32 cells were seeded in 96-well white plates with transparent bottom. For neuroprotective studies, the cells were preincubated first for 1 h with compound 1, 8 or reference antioxidants AA, TX (all at the concentration of 50 μM) and next the neurotoxin 6-OHDA (Sigma-Aldrich, Inc., St. Louis, MO, USA) was added at final concentration of 50 μM (SH-SY5Y assay) or 200 µM (IMR-32 assay). After 24 h of incubation, the CytoTox-ONE™ was added to each well and the cells were incubated next for 10 min at room temperature. The fluorescence was measured using a microplate reader EnSpire (PerkinElmer, Waltham, MA, USA) with an excitation wavelength of 560 nm and an emission wavelength of 590 nm. All measurements were performed in triplicate and results are shown as mean ± SD. The similar studies were also performed with SH-SY5Y cells injured by 100 μM of 6-OHDA (Figure S1, Supporting Materials). • ROS Assay

[5] = system: SH-SY5Y neuroblastoma cells; test: neuroprotection against 6-OHDA-induced LDH release; assay type: cell-based, human; conditions: compound 50 µM
Procedure: as §1, §3

[6] = oxygen radical absorbance capacity fluorescent (ORAC-FL) assay; conditions: Trolox equivalent, calculated at 5 µM of compounds and Trolox
Procedure: The ORAC-FL was performed according to procedure described in the literature. The reagents used in this assay, TX, fluorescein and 2,2′-azobis(2-amidinopropane) dihydrochloride (AAPH), were purchased from Sigma-Aldrich, Inc., St. Louis, MO, USA. The prepared ORAC-FL reagent consisted of 0.3 μM of fluorescein and 100 µM of AAPH dissolved in PBS buffer. The compounds and the reference antioxidant TX were tested at the concentration 2.5 µM and the results were compared to the blank in which no antioxidant was present. The assays were performed in black 96-well plates. The fluorescence readings were taken by a microplate reader EnSpire (PerkinElmer, Waltham, MA, USA) every minute for a duration of 240 min. The excitation wavelength was 485 nm and the emission wavelength was 520 nm. The area under the fluorescence decay curve (AUC) was calculated next by GraphPad Prism™ software (version 5.01, San Diego, CA, USA). All measurements were performed in triplicate. The TX equivalent (TE) was calculated next using the following Equation (1):TE = [(AUCsample − AUCblank)/(AUCTX − AUCblank)] × [CTX/Csample](1)

SH-SY5Y cells = test: ROS assay (DCFH-DA), H2O2-induced ROS accumulation; assay type: cell-based, human; conditions: compound 50 µM, 500 µM H2O2, 3 h
Procedure: as §1
During this assay SH-SY5Y cells were preincubated first for 1 h with 250 μM solution of DCFH-DA (Sigma-Aldrich, Inc., St. Louis, MO, USA) in HBSS buffer. After DCFH-DA was removed, cells were washed with HBSS and incubated next for 1 h with 50 μM of compound 1 or 8. Next, the H2O2 was added at final concentration 500 μM. After 3 h of incubation, the fluorescence was measured using a microplate reader EnSpire (PerkinElmer, Waltham, MA, USA) with an excitation wavelength of 486 nm and emission wavelength of 530 nm. All measurements were performed in triplicate and results are shown as mean ± SD.

native AMPA receptors = conditions: cited from earlier work

For `NC(Cc1cc(-c2cc(O)ccc2O)c(Cl)c([N+](=O)[O-])c1)C(=O)O` (centres unmarked) [Compound 1], the cell viability [1] was “no influence on cell viability”, the cell viability [2] was “no influence on cell viability” and the “latency to first clonus” value [3] was “not able to prolong latency to the first clonus”. For the same compound, the “number of seizure episodes” value [3] was “remained unaffected”, the “6-OHDA-induced release of LDH (neuroprotection)” value (“6-OHDA-induced release of LDH” below) [4] was “statistically significant decrease” and the “6-OHDA-induced release of LDH” value ([5]; 100 µM 6-OHDA) was “neuroprotective effect was not observed”. The “6-OHDA-induced release of LDH” value ([5]; 1 h pretreatment, 50 µM 6-OHDA, 24 h) was “statistically significant decrease”, the “ORAC (TE)” value [6] was 3.46 TE and the “intracellular ROS level” value (SH-SY5Y cells) was “statistically significant decrease”. For the same compound, the “selectivity over NMDA and KA receptors” value (native AMPA receptors) was “high selectivity” and the Ki (native AMPA receptors; native AMPA receptors, rat brain membranes, mean of three experiments, read-out: [3H]AMPA Ki) was 920 nM.
